These results are taken from US8088791B2, “Antibacterial agents” (Biots Scientific Management Pty Ltd, priority 2006, dated 2012).

SMILES strings stand for the structures. ≈ marks a conversion by molar mass, not a printed value. Read-outs that look alike come from different tables or passages of the source.

Common to all, as to format: cell-based
Test [1] has as its system Staphylococcus aureus ATCC29213. The test is described as follows: Minimum Inhibitory Concentration (MIC) testing, broth microdilution, Staphylococcus aureus. The note with it: Staphylococcus aureus ATCC29213; read-out: Staphylococcus aureus MICs Activity. The method in brief:
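Broth microdilution per NCCLS M7-A5 in Mueller Hinton broth, with compound in 1.6% DMSO and inoculum at OD 0.09 diluted 1:100. Plates incubated 16–20 h at 37°C. MIC is the lowest concentration with no visible growth; scored A ≤8, B 16–64, C >64 μg/ml.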

The subject of test [2] is various bacterial species. The test is described as follows: Minimum Inhibitory Concentration (MIC) testing, broth microdilution, other bacterial species. The procedure: Compounds of this invention were tested for antimicrobial activity by susceptibility testing in liquid media. MICs for compounds against each strain were determined by a broth microdilution method according to the National Committee for Clinical Laboratory Standards (NCCLS) guidelines. (NCCLS. 2000. Methods for dilution antimicrobial susceptibility tests for bacteria that grow aerobically—fifth edition. Approved standard M7-A5. NCCLS, Wayne, Pa.)
Briefly, test compounds are prepared in 100 μl of 1.6% DMSO solution in multiwell plates. Several bacterial colonies from a freshly streaked plate are transferred to an appropriate rich broth, such as Mueller Hinton. The cell suspension is adjusted to an optical density of 0.09 and further diluted 1:100 with warm 2× broth. This cell suspension is dispensed into the wells containing compound solution so that the final volume is 200 μl. The plates are incubated overnight (16-20 hours) at 37° C. and turbidity is scored by eye and quantified spectrophotometrically. The MIC is defined as the lowest concentration inhibiting visible growth.
Some of the Examples were also tested for activity against other bacterial species. […] Activities were again scored as ‘A’ if the MIC was ≦8 micrograms/ml, ‘B’ if the MIC was 16 to 64 micrograms/ml and ‘C’ if the MIC was greater than 64 micrograms/ml.

The next test concerns Bacillus subtilis 168CA. The test is described as follows: Minimum Inhibitory Concentration (MIC) testing, broth microdilution, Bacillus subtilis. The note with it: Bacillus subtilis 168CA; read-out: Bacillus subtilis MICs Activity. The method, boiled down:
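MICs were scored A (≦8 μg/ml), B (16–64 μg/ml) or C (>64 μg/ml), read as the lowest concentration preventing visible growth by eye and spectrophotometry. Plates incubated overnight (16–20 h) at 37 °C, inoculum OD 0.09 diluted 1:100 in 2× broth, per NCCLS guidelines.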

[3] abbreviates: Staphylococcus epidermidis, ATCC12228, read-out: MIC Activity Staphylococcus epidermidis ATCC 12228.
Setting [4] is: Staphylococcus haemolyticus, ATCC29970, read-out: MIC Activity Staphylococcus haemolyticus ATCC 29970.
[5] abbreviates: Staphylococcus saprophyticus, ATCC15305, read-out: MIC Activity Staphylococcus saprophyticus ATCC 15305.

For `C#CCCCCCCCCCOc1cccc(C(N)=O)c1F` [Example 177, 2-Fluoro-3-(10-undecynyloxy)benzenecarboxamide], the MIC (in test [1]; in test [2] (setting [3]); with Bacillus subtilis 168CA) was under 8 µg/mL in each case.

As for `NC(=O)c1c(F)ccc(OCc2nc3ccccc3s2)c1F` [Example 215, 3-(1,3-Benzothiazol-2-ylmethoxy)-2,6-difluorobenzenecarboxamide], the MIC (in test [1]; in test [2] (setting [3]); in the test on Bacillus subtilis 168CA) was under 8 µg/mL throughout.

Consider `NC(=O)c1cccc(OCc2nc(-c3ccc(Cl)cc3)cs2)c1F` [Example 271, 3-[4-(4-Chloro-phenyl)-thiazol-2-ylmethoxy]-2-fluoro-benzamide], for which the MIC (in test [1]; in test [2] (setting [3]); in the test on Bacillus subtilis 168CA) was under 8 µg/mL each time.

As for `CCCc1ccc2sc(COc3ccc(F)c(C(N)=O)c3F)nc2c1` [Example 135, 2,6-Difluoro-3-(5-propyl-benzothiazol-2-ylmethoxy)-benzamide], the MIC (in test [1]; in test [2] (setting [4]); in the test on Bacillus subtilis 168CA) was under 8 µg/mL in each case.

On to `CCCC/C=C\CCCCOc1ccc(F)c(C(N)=O)c1F` [Example 87, 2,6-Difluoro-3-[(Z)-5-decenyloxy]benzenecarboxamide], for which the MIC (in test [1]; in test [2] (setting [3]); with Bacillus subtilis 168CA) was under 8 µg/mL each time.

For the compound `NC(=O)c1c(F)ccc(OCc2nc3cc(-c4ccccc4)ccc3s2)c1F` [Example 114, 2,6-Difluoro-3-(5-phenyl-benzothiazol-2-ylmethoxy)-benzamide], the MIC was under 8 µg/mL in test [1]; under 8 µg/mL in test [2] (Bacillus cereus, ATCC14579, read-out: MIC Activity Bacillus cereus ATCC 14579); under 8 µg/mL in test [2] (setting [5]); under 8 µg/mL in the test with Bacillus subtilis 168CA.

`COc1ccc(-c2nc(COc3ccc(F)c(C(N)=O)c3F)sc2-c2ccccc2)cc1` [Example 287, 2,6-Difluoro-3-[4-(4-methoxy-phenyl)-5-phenyl-thiazol-2-ylmethoxy]-benzamide]: the MIC (in test [1]; in test [2] (setting [4]); in the test with Bacillus subtilis 168CA) was under 8 µg/mL throughout.

As to `COc1ccc(-c2coc(COc3ccc(F)c(C(N)=O)c3F)n2)cc1` [Example 311, 2,6-Difluoro-3-[4-(4-methoxy-phenyl)-oxazol-2-ylmethoxy]-benzamide], the MIC (in test [1]; in test [2] (setting [3]); in the test with Bacillus subtilis 168CA) was under 8 µg/mL in each case.

On to `CCCCCC/C=C/COc1ccc(F)c(C(N)=O)c1F` [Example 84, 2,6-Difluoro-3-[(E)-2-nonenyloxy]benzenecarboxamide], for which the MIC (in test [1]; in test [2] (setting [3]); with Bacillus subtilis 168CA) was under 8 µg/mL throughout.

Regarding `NC(=O)c1c(F)ccc(OCc2ccc3ccc(Cl)cc3n2)c1F` [Example 111, 3-(7-Chloro-quinolin-2-ylmethoxy)-2,6-difluoro-benzamide], the MIC (in test [1]; in test [2] (setting [5]); in the test with Bacillus subtilis 168CA) was under 8 µg/mL in each case.

Turning to `C#CCCCCCCCCCOc1cccc(C(N)=O)c1` [Example 46, 3-(10-Undecynyloxy)benzenecarboxamide], the MIC (in test [1]; in test [2] (setting [3]); in the test with Bacillus subtilis 168CA) was under 8 µg/mL throughout.

For `COc1ccc(-c2nc(COc3ccc(F)c(C(N)=O)c3F)sc2-c2ccc(OC)cc2)cc1` [Example 282, 2,6-Difluoro-3-[5-(4-methoxy-phenyl)-4-(4-methoxy-phenyl)-thiazol-2-ylmethoxy]-benzamide], the MIC (in test [1]; in test [2] (setting [3]); in the test on Bacillus subtilis 168CA) was under 8 µg/mL throughout.

For the compound `CCCCCCCCCOc1cccc(C(N)=O)c1F` [Example 175, 2-Fluoro-3-(nonyloxy)benzenecarboxamide], the MIC (in test [1]; in test [2] (setting [3]); in the test on Bacillus subtilis 168CA) was under 8 µg/mL in each case.

On to `C#CCCCCCCCCCOc1ccc(F)c(C(N)=O)c1F` [Example 88, 2,6-Difluoro-3-(10-undecynyloxy)benzenecarboxamide], for which the MIC (in test [1]; in test [2] (setting [3]); with Bacillus subtilis 168CA) was under 8 µg/mL in each case.

In the case of `C=CCCCCCOc1cccc(C(N)=O)c1` [Example 17, 3-(6-Heptenyloxy)benzenecarboxamide], the MIC (in test [1]; with Bacillus subtilis 168CA) was 16 to 64 µg/mL (≈ 68.6 to 274 µM) in each case.

`NC(=O)c1c(F)ccc(OCc2cc3ccccc3o2)c1F` [Example 207, 3-(1-Benzofuran-2-ylmethoxy)-2,6-difluorobenzenecarboxamide]: the MIC in test [1] was 16 to 64 µg/mL (≈ 52.8 to 211 µM); in the test with Bacillus subtilis 168CA, under 8 µg/mL.

In the case of `CCCCOC(=O)COc1cccc(C(N)=O)c1` [Example 41, Butyl 2-[3-(aminocarbonyl)phenoxy]acetate], the MIC (in test [1]; in the test with Bacillus subtilis 168CA) was 16 to 64 µg/mL (≈ 63.7 to 255 µM) in each case.

Regarding `NC(=O)c1c(F)ccc(OCc2nc3cc(Cl)cnc3s2)c1F` [Example 139, 3-(6-Chloro-thiazolo[5,4-b]pyridin-2-ylmethoxy)-2,6-difluoro-benzamide], the MIC (in test [1]; in test [2] (setting [3]); in test [2] (setting [4]); in the test on Bacillus subtilis 168CA) was under 8 µg/mL throughout.

Consider `COc1ccc2ccc(COc3ccc(F)c(C(N)=O)c3F)nc2c1` [Example 98, 2,6-Difluoro-3-(7-methoxy-quinolin-2-ylmethoxy)-benzamide], for which the MIC (in test [1]; in the test on Bacillus subtilis 168CA) was under 8 µg/mL throughout.

Regarding `NC(=O)c1c(F)ccc(OCc2noc(-c3cccs3)n2)c1F` [Example 134, 2,6-Difluoro-3-(5-thiophen-2-yl-[1,2,4]oxadiazol-3-ylmethoxy)-benzamide], the MIC (in test [1]; in the test on Bacillus subtilis 168CA) was 16 to 64 µg/mL (≈ 47.4 to 190 µM) each time.

With `NC(=O)c1c(Cl)ccc(OCc2nc(-c3ccc(Cl)cc3)no2)c1F` [Example 269, 6-Chloro-3-[3-(4-chloro-phenyl)-[1,2,4]oxadiazol-5-ylmethoxy]-2-fluoro-benzamide], the MIC (in test [1]; with Bacillus subtilis 168CA) was under 8 µg/mL in each case.

In the case of `NC(=O)c1c(F)ccc(OCc2csc(-c3ccc(OC(F)(F)F)cc3)n2)c1F` [Example 307, 2,6-Difluoro-3-[2-(4-trifluoromethoxy-phenyl)-thiazol-4-ylmethoxy]-benzamide], the MIC (in test [1]; in the test with Bacillus subtilis 168CA) was under 8 µg/mL each time.
